≈ marks a conversion by molar mass, not a printed value. Counter-ions that a name gives are not always drawn.

The test system of assay [1] is Salmonella enterica serovar Typhimurium SL1344.
The test system is the same in assay [2]. Kind of assay: intracellular MIC (10-fold luminescence reduction); higher = less potent. Conditions: RAW264.7 macrophages.
A further assay concerns RAW264.7. Kind of assay: cytotoxicity (LDH release relative to maximum lysis); higher = more toxic. The following applies: 50 µM; 2 h.

In the case of `COC(=O)N/N=C/c1c[n+]([O-])c2ccccc2[n+]1[O-]` [CARBADOX], the minimum inhibitory concentration (MIC) in assay [1] (LPM pH 5.8) is 25 µM (≈ 6.56 µg/mL); in assay [1] (MHB), over 50 µM; in assay [1] (MOPS glucose minimal medium), 50 µM (≈ 13.1 µg/mL). In addition, the “intracellular MIC” value in assay [2] was at most 0.78 µM. For the same compound, the cytotoxicity in the assay on RAW264.7 worked out at 15.6%.

On to `O=[N+]([O-])c1ccc(O)c2ncccc12` [NITROXOLINE], for which the MIC is at most 0.78 µM in assay [1] (LPM pH 5.8), 25 µM (≈ 4.75 µg/mL) in assay [1] (MHB) and 6.25 µM (≈ 1.19 µg/mL) in assay [1] (MOPS glucose minimal medium). The “intracellular MIC” value in assay [2] is over 50 µM. In the assay with RAW264.7, this compound registered a cytotoxicity of 14.6%.

In the case of `Cc1cc(CC(C)CC(C)(C)C)n(O)c(=O)c1` (stereo not given) [PIROCTONE OLAMINE], the minimum inhibitory concentration (MIC) in assay [1] (LPM pH 5.8), in assay [1] (MHB) and in assay [1] (MOPS glucose minimal medium) was at most 0.78 µM each time. Also, the “intracellular MIC” value in assay [2] was at most 0.78 µM. In the assay on RAW264.7, this compound showed a cytotoxicity of 20.8%.

For the compound `CC[C@@H]1C(=O)OC[C@@H]1Cc1cncn1C` [PILOCARPINE NITRATE], the MIC in assay [1] (LPM pH 5.8), in assay [1] (MHB) and in assay [1] (MOPS glucose minimal medium) was over 50 µM in each case. Also, the “intracellular MIC” value in assay [2] is at most 0.78 µM. In addition, in the assay with RAW264.7, the cytotoxicity was 7.24%.

`CO/N=C1\CN(c2nc3c(cc2F)c(=O)c(C(=O)O)cn3C2CC2)CC1CN` (stereo not given) [GEMIFLOXACIN MESYLATE]: the MIC in assay [1] (LPM pH 5.8), in assay [1] (MHB) and in assay [1] (MOPS glucose minimal medium) was at most 0.78 µM each time. Moreover, the “intracellular MIC” value in assay [2] worked out at 1.56 µM. The cytotoxicity with RAW264.7 came out at 5.86%.

Take `COC(=O)C1=C(C)NC(C)=C(C(=O)OCC(C)C)C1c1ccccc1[N+](=O)[O-]` (stereo not given) [NISOLDIPINE]: the results for the minimum inhibitory concentration (MIC) in assay [1] (LPM pH 5.8), in assay [1] (MHB) and in assay [1] (MOPS glucose minimal medium) were 12.5 µM (≈ 4.86 µg/mL), over 50 µM and over 50 µM, respectively. Besides, the “intracellular MIC” value in assay [2] was over 50 µM. This compound registered a cytotoxicity in the assay on RAW264.7 of 20.8%.

Regarding `CC(C)NCC(O)COc1cccc2[nH]ccc12` (stereo not given) [PINDOLOL], the MIC in assay [1] (LPM pH 5.8), in assay [1] (MHB) and in assay [1] (MOPS glucose minimal medium) was over 50 µM in each case. For the same compound, in assay [2], the “intracellular MIC” value is 1.56 µM. Moreover, the cytotoxicity in the assay on RAW264.7 is 7.73%.

As to `CCn1nc(C(=O)O)c(=O)c2cc3c(cc21)OCO3` [CINOXACIN], the MIC in assay [1] (LPM pH 5.8) is at most 0.78 µM; in assay [1] (MHB), over 50 µM; in assay [1] (MOPS glucose minimal medium), over 50 µM. Also, the “intracellular MIC” value in assay [2] was at most 0.78 µM. Moreover, the cytotoxicity in the assay on RAW264.7 stood at 8.11%.

Take `C[C@H]1COc2c(N3CCN(C)CC3)c(F)cc3c(=O)c(C(=O)O)cn1c23` [LEVOFLOXACIN]: the minimal inhibitory concentration (MIC) in assay [1] (LPM pH 5.8), in assay [1] (MHB) and in assay [1] (MOPS glucose minimal medium) was at most 0.78 µM each time. Further, the “intracellular MIC” value in assay [2] is at most 0.78 µM. Besides, in the assay with RAW264.7, the cytotoxicity came to 21%.

Consider `C=CC1=C(C(=O)O)N2C(=O)[C@@H](NC(=O)/C(=N\O)c3csc(N)n3)[C@H]2SC1` [CEFDINIR], for which the MIC in assay [1] (LPM pH 5.8), in assay [1] (MHB) and in assay [1] (MOPS glucose minimal medium) was at most 0.78 µM in each case. In addition, in assay [2], the “intracellular MIC” value was over 50 µM. The same compound gave a cytotoxicity with RAW264.7 of 19.4%.

For the compound `CC(=O)OC1CN2CCC1CC2` (stereo not given) [ACECLIDINE], the MIC in assay [1] (LPM pH 5.8), in assay [1] (MHB) and in assay [1] (MOPS glucose minimal medium) was over 50 µM each time. In addition, the “intracellular MIC” value in assay [2] is over 50 µM. This compound also registered a cytotoxicity in the assay on RAW264.7 of 20.3%.

Consider `CCn1cc(C(=O)O)c(=O)c2cc(F)c(N3CCNCC3)cc21` [NORFLOXACIN], for which the values for the MIC in assay [1] (LPM pH 5.8), in assay [1] (MHB) and in assay [1] (MOPS glucose minimal medium) were 1.56 µM (≈ 0.498 µg/mL), at most 0.78 µM and at most 0.78 µM, respectively. Further, in assay [2], the “intracellular MIC” value was 1.56 µM. Moreover, in the assay with RAW264.7, the cytotoxicity turned out to be 8.22%.

Take `CO/N=C(\C(=O)N[C@@H]1C(=O)N2C(C(=O)O)=C(CSc3nc(=O)c(O)nn3C)CS[C@H]12)c1csc(N)n1` [CEFTRIAXONE SODIUM TRIHYDRATE]: the minimum inhibitory concentration (MIC) in assay [1] (LPM pH 5.8), in assay [1] (MHB) and in assay [1] (MOPS glucose minimal medium) was at most 0.78 µM in each case. In assay [2], the “intracellular MIC” value was over 50 µM. In addition, the cytotoxicity in the assay with RAW264.7 was determined as 19.6%.

As to `C[C@H]1[C@H](NC(=O)/C(=N\OC(C)(C)C(=O)O)c2csc(N)n2)C(=O)N1S(=O)(=O)O` [AZTREONAM], the MIC in assay [1] (LPM pH 5.8), in assay [1] (MHB) and in assay [1] (MOPS glucose minimal medium) was at most 0.78 µM each time. In addition, the “intracellular MIC” value in assay [2] was 1.56 µM. Besides, the cytotoxicity with RAW264.7 is 6.82%.

In the case of `CC(C)NC(=N)NC(=N)Nc1ccc(Cl)cc1` [CHLOROGUANIDE HYDROCHLORIDE], the minimum inhibitory concentration (MIC) in assay [1] (LPM pH 5.8), in assay [1] (MHB) and in assay [1] (MOPS glucose minimal medium) was over 50 µM each time. For the same compound, the “intracellular MIC” value in assay [2] was over 50 µM. Moreover, the cytotoxicity in the assay with RAW264.7 came out at 6.72%.

As to `CN1C[C@H](CNC(=O)OCc2ccccc2)C[C@@H]2c3cccc4c3c(cn4C)C[C@H]21` [METERGOLINE], the MIC in assay [1] (LPM pH 5.8), in assay [1] (MHB) and in assay [1] (MOPS glucose minimal medium) was over 50 µM throughout. Further, the “intracellular MIC” value in assay [2] is at most 0.78 µM. In addition, the cytotoxicity in the assay on RAW264.7 is 16.2%.

For the compound `CO/N=C(\C(=O)N[C@@H]1C(=O)N2C(C(=O)O)=C(CSc3nnnn3C)CS[C@H]12)c1csc(N)n1` [CEFMENOXIME HYDROCHLORIDE], the results for the MIC in assay [1] (LPM pH 5.8), in assay [1] (MHB) and in assay [1] (MOPS glucose minimal medium) were 1.17 µM, at most 0.78 µM and at most 0.78 µM, respectively. Also, in assay [2], the “intracellular MIC” value was 1.56 µM. In the assay on RAW264.7, the cytotoxicity stood at 8.15%.

On to `CCCCCCCCCCCCCCCC[n+]1ccccc1` [CETYLPYRIDINIUM CHLORIDE], for which the MIC in assay [1] (LPM pH 5.8) came to 12.5 µM; in assay [1] (MHB), 50 µM; in assay [1] (MOPS glucose minimal medium), 12.5 µM. The “intracellular MIC” value in assay [2] was at most 0.78 µM. This compound also gave a cytotoxicity in the assay on RAW264.7 of 63%.

As for `O=C(N[C@H](CO)[C@H](O)c1ccc([N+](=O)[O-])cc1)C(Cl)Cl` [CHLORAMPHENICOL], the minimum inhibitory concentration (MIC) was at most 0.78 µM in assay [1] (LPM pH 5.8), 12.5 µM (≈ 4.04 µg/mL) in assay [1] (MHB) and 3.13 µM (≈ 1.01 µg/mL) in assay [1] (MOPS glucose minimal medium). Also, the “intracellular MIC” value in assay [2] was at most 0.78 µM. The cytotoxicity in the assay with RAW264.7 turned out to be 8.21%.

Consider `CO[C@H]1O[C@@H]2O[C@@]3(C)CC[C@H]4[C@H](C)CC[C@@H]([C@H]1C)[C@@]24OO3` [ARTEMETHER], for which the MIC was 50 µM (≈ 14.9 µg/mL) in assay [1] (LPM pH 5.8), over 50 µM in assay [1] (MHB) and over 50 µM in assay [1] (MOPS glucose minimal medium). Also, the “intracellular MIC” value in assay [2] amounted to 12.5 µM. Moreover, the cytotoxicity with RAW264.7 is 7.51%.

Regarding `C[C@]12CC[C@@H]3c4ccc(OC(=O)c5ccccc5)cc4CC[C@H]3[C@@H]1CC[C@@H]2O` [ESTRADIOL BENZOATE], the MIC in assay [1] (LPM pH 5.8), in assay [1] (MHB) and in assay [1] (MOPS glucose minimal medium) was over 50 µM each time. Besides, the “intracellular MIC” value in assay [2] is over 50 µM. The cytotoxicity with RAW264.7 worked out at 20.3%.

With `CO[C@@H]1[C@@H](OC(N)=O)[C@@H](O)[C@H](Oc2ccc3c(O)c(NC(=O)c4ccc(O)c(CC=C(C)C)c4)c(=O)oc3c2C)OC1(C)C` [NOVOBIOCIN SODIUM], the MIC was 1.17 µM in assay [1] (LPM pH 5.8), over 50 µM in assay [1] (MHB) and over 50 µM in assay [1] (MOPS glucose minimal medium). Moreover, the “intracellular MIC” value in assay [2] is over 50 µM. Also, the cytotoxicity in the assay on RAW264.7 was 7.98%.

`O=C(O)CN(CCN(CC(=O)O)CC(=O)O)CCN(CC(=O)O)CC(=O)O` [PENTETIC ACID]: the MIC in assay [1] (LPM pH 5.8) is at most 0.78 µM; in assay [1] (MHB), over 50 µM; in assay [1] (MOPS glucose minimal medium) it was over 50 µM. Moreover, the “intracellular MIC” value in assay [2] was found to be 1.56 µM. Besides, the cytotoxicity in the assay on RAW264.7 turned out to be 7.12%.

Consider `C[CH2][Hg][S]c1ccccc1C(=O)[O-].[Na+]` [THIMEROSAL], for which the MIC in assay [1] (LPM pH 5.8), in assay [1] (MHB) and in assay [1] (MOPS glucose minimal medium) was at most 0.78 µM throughout. Besides, the “intracellular MIC” value in assay [2] was at most 0.78 µM. For the same compound, the cytotoxicity in the assay with RAW264.7 worked out at 76.7%.

For orientation: MIC means the lowest concentration found to suppress growth.

The values above are taken from the supplement of paper PMC6331611.
